One may read the MIC as the least concentration at which growth counts as inhibited.

The test system of this experiment is Mycobacterium tuberculosis strain H37Rv. Briefly: Minimal inhibitory concentration (MIC) by resazurin microtitre assay (REMA). Type of experiment: cell-based. To be noted: for MIC: Mycobacterium tuberculosis, 168 h, M. tuberculosis H37Rv, REMA, 7 days (10 generations), 96-well plate. (Alamar Blue is a resazurin reagent that responds to reducing activity.)

In brackets after ≈: the same amount, converted by molar mass.

Regarding `CC(C)[C@@H]1OC(=O)[C@H](C)[C@H](O)[C@H](Cc2cccnc2)NC(=O)[C@@H](NC(=O)c2ncccc2O)[C@@H](C)OC1=O` [Analog 100a], 12.5 µg/mL (≈ 23.6 µM) was the least that counted as inhibitory (MIC).

With `CC(C)[C@H]1OC(=O)[C@H](C)[C@H](O)[C@H](Cc2cccnc2)NC(=O)[C@@H](NC(=O)c2ncccc2O)[C@@H](C)OC1=O` [Analog 100b], it took 1.56 µg/mL (≈ 2.95 µM) to inhibit growth (MIC). For the same compound, the “activity against Mycobacterium tuberculosis (strain H37Rv) compared with pyridomycin” value (strain H37Rv, statement in words) is “in the same range of inhibitory activity as for pyridomycin”.

The record behind these values is patent US20150246907A1 (ETH Zurich, priority 2012, published 2015).
